According to patent EP3173083A1, “IN VIVO ANTIANGIOGENIC EFFECT OF A PALLADIUM COMPLEX” (Istanbul Universitesi Rektorlugu, priority 2015, dated 2017):

Tested on: CAM
Test: chorioallantoic membrane (CAM) model of antiangiogenic effect
Assay type: in vivo, chicken
Details: for Score: average antiangiogenic score on CAM, evaluated by stereomicroscope 24 hours after pellet application; for antiangiogenic effect on CAM: effect class by scoring system of Table 1, 50 µg/pellet
Description: In a study performed on the antiangiogenic effect of palladium complex of the invention, a method which is named chorioallantoic membrane (CAM) model is used. The model in question is a method developed by the embryologists more than 50 years ago, has a broad area of usage in embryonic researches (Auerbach, R., Lewis, R., Shinners, B., Kubai, L., Akhtar, N., 2003. Angiogenesis assays: a critical overview. Clin. Chem., 49(1): 32-40). Since 1956, the model is used in cancer and metastasis researches. The model has been started to be used in angiogenesis studies by Folkman in 1976. CAM is a non-embryo membrane which is formed by the merger of chorion and allantois as a result of an incubation of four-days. Although it is widely used in embryonic researches, it also has a broad range of usage in cancer and metastasis researches (Ribatti, D., 2010. The inefficacy of antiangiogenic therapies. J. Angiogenes. Res., 2:27. doi: 10.1186/2040-2384-2-27). […] The method is one of the most commonly used methods since it is quick, cheap and semi quantitative and enable scanning of many new agents (Cimpean, A.M., Ribatti, D., Raica, M., 2008. The chick embryo chorioallantoic membrane as a model to study tumor metastasis. Angiogenesis, 11(4): 311-319; Ribatti, D., 2008. Chick embryo chorioallantoic membrane as a useful tool to study angiogenesis. Int. Rev. Cell Mol. Biol., 270: 181-224).
The experiment Protocol which was reported in 1967 by D'Arcy and Howard and in 2002 by Bürgermeister and his colleagues was used (D'Arcy, P.F., Howard, E.M.,1967. A new anti-inflammatory test, utilizing the chorio-allantoic membrane of the chick embryo. Br. J. Pharmacol. Chemother., 29(3): 378-38; Bürgermeister, J., Paper, D.H., Vogl, H., Linhardt, R.J., Franz, G., 2002. LaPSvS1, a (1-->3)-beta-galactan sulfate and its effect on angiogenesis in vivo and in vitro. Carbohydr. Res., 337(16): 1459-1466).
The palladium complex, 5 mg/ml (50 µg /pellet), the standard control agents sodium dodecyl sulfate (SDS), cortisone, prednisone, (±)-thalidomide has been suspended in 2,5 % (w/v) agar at a final concentration of 50 µg /pellet by heating (60 °C<). Then, 10 µl is taken from this suspension and provided to become frozen pellet at room temperature by being applied on stainless steel cylinder supports with a diameter 5 mm. Pellets are applied onto the surface of CAM.
The procedure for CAM experiment is given in Figure 1 (Kiyan, H.T., 2010. Baz ? Hypericum Türlerinin Uçucu Yaǧ Bile ? imleri ve Antianjiyojenik Aktiviteleri, Yüksek Lisans Tezi, Anadolu Üniversitesi, Saǧl ? k Bilimleri Enstitüsü, Farmakognozi Program ? , 19p). Accordingly, fertilized chicken eggs to be used in experiment are incubated at 36,5 °C and in an incubator with 80% relative humidity (climatization cabin) at horizontal position for 72 hours before the experiment. In this period, eggs were carefully upturned time to time. At the end of the incubation period, firstly, from the bottom side of eggs with the help of the sterile injectors, 10-15 ml of albumin (egg white) is slowly removed and then from the top side of eggs (more upright and sharp part), shell and membrane are carefully removed with the help of the forceps (Figure-1, A). Living and developing embryo CAM immediately taken under protection with a stretch film, is waited again at 36,5 °C and in an incubator with 80% relative humidity for another 72 hours (Figure-1, B). When diameter of the CAM is detected to be approximately 2 cm, one piece of freshly prepared sample pellet for each egg is placed into the capillaries on the CAM (Figure-1, C). 15 pellets from each material is applied on CAM of an equal number of eggs and covered with stretch film. Before the evaluations, eggs were incubated for another 24 hours in such a way that pellets are placed in under specified conditions. […]

Compound | Score (50 µg/pellet) | antiangiogenic effect on CAM | toxic or irritant effect on CAM (50 µg/pellet) | Irritation (%) (CAM, 50 µg/pellet, 24 hours after pellet application)
O=C1CCC(N2C(=O)c3ccccc3C2=O)C(=O)N1 (racemic) [(±)-Thalidomide] | 0.9 ± 0.2 | strong | – | –
C[C@]12CCC(=O)C=C1CC[C@@H]1[C@@H]2C(=O)C[C@@]2(C)[C@H]1CC[C@]2(O)C(=O)CO [Cortisone] | 1.2 ± 0.2 | very strong | – | –
O=C1c2ccccc2S(=O)(=O)[N]1[Pd-2]12[n+]3ccccc3-c3cccc([n+]31)-c1cccc[n+]12 [Palladium complex, [Pd(sac)(terpy)] (sac)•4H2O (sac=saccharinate and terpy=2,2':6',2"-terpyridine)]] | – | very strong | no toxic or irritant effect | –
C[C@]12C=CC(=O)C=C1CC[C@@H]1[C@@H]2C(=O)C[C@@]2(C)[C@H]1CC[C@]2(O)C(=O)CO [Prednisone] | 0.9 ± 0.7 | strong | – | –
CCCCCCCCCCCCOS(=O)(=O)[O-].[Na+] [Sodium dodecyl sulphate (SDS), Sodium dodecyl sulphate] | 0.1 ± 0.1 | – | irritant effect | 87 ± 5%
